Measurements as given in publication PMC9917132, “Tenebrio molitor as a Simple and Cheap Preclinical Pharmacokinetic and Toxicity Model” (International Journal of Molecular Sciences, 2023).
Like-named read-outs stand apart in the source and are kept apart here.

Assays:
[1] = tested on: adult exemplars of T. molitor Coleoptera; assay: Toxicity of vehicles in adult T. molitor Coleoptera (survival, vitals monitored daily for seven days); format: in vivo, Tenebrio molitor; details: for Survival %: groups of six TMC, seven days; for tolerability: 1 µL per TMC (lower dose)
Method: Considering the limited volume of hemolymph, we considered injecting 1 or 2 µL of vehicles per TMC. The most common vehicles used for i.v. and i.p. studies were administered to experimental groups of six TMC and vitals were monitored daily for seven days. Results are reported in Table 1, expressed as survival %.
TMC were randomly selected for toxicity assessment. TMC older than 3 days were discarded. Compounds were solubilized in the opportune vehicle and injected on the hemocoel using a Hamilton syringe, (7001 KH, volume 1 µL, needle size 25 s, cone tip), by administering 1 µL of compound on the TMC dorsal side, between the pronotum and elytron.

[2] = tested on: Rats; details: cited from earlier work; for LD50: reported
[3] = Acute toxicity (LD50) in adult T. molitor Coleoptera (TMC) after injection in the hemocoel; format: in vivo, Tenebrio molitor; details: Tenebrio molitor, in vivo, other: injection in the hemocoel; 1 µL in 100% DMSO injected in hemocoel; mortality recorded daily for 7 days; highest dose 2000 mg/kg
Method: (§1) The literature was carefully studied to identify the starting dose of a panel of drugs; however, when no data were available, the protocol described in Figure 1 was adopted, using 1 TMC and starting from the dose of 200 mg/kg.
(§2) The protocol depicted in Figure 2 has been adopted to determine LD50, starting from the opportune dose determined as described above. A panel of 20 drugs available on the market, including antivirals, antibiotics and the representative drugs for several pharmaceutical classes, was analyzed (Table 2).
(§3) Figure 2 Flowchart for LD50 determination. Starting from the opportune initial dose, LD50 was determined by changing the dose based on results and increasing the number of […] for final determinations. GHS cat.: Globally Harmonized System category. The numbers on the circles represent the number of deaths in exemplars.
(§4) TMC were randomly selected for toxicity assessment. TMC older than 3 days were discarded.
(§5) Acute toxicity was determined following the Organization for Economic Cooperation and Development (OECD) guidelines for acute toxicity of chemicals. All the available information on the test substance was considered to select the toxic dose of test compounds. Data were collected considering LD50 already reported for humans, rats and mice or, when possible, insects (e.g., Galleria mellonella). The initial dose, expressed in mg/kg, was calculated as the lowest LD50 reported in the literature. When no data were found in the literature, the starting dose of 200 mg/kg was used and the range-finding study was conducted with 1 TMC, by adapting OECD guidelines (Figure 1). To perform LD50 calculation study, 5 TMC were injected with the selected dose, and mortality was recorded daily for 7 days. Each experiment included 1 control group treated with DMSO. […] If 1 or less TMC died, the experiment was performed with a higher dose. If 2 or 3 TMC died, the experiment was repeated by re-testing the initial dose with 10 TMC. […] The experiment continued until a toxic dose was determined.

[4] = tested on: Mice; details: cited from earlier work
[5] = tested on: Tenebrio molitor; assay: Acute toxicity (LD50) in adult T. molitor Coleoptera (TMC) after injection in the hemocoel; format: in vivo; details: dose of 2000 mg/kg
Method: as §1, §2, §3, §4, §5

[6] = set-up: method as in PMID 33649113; details: oral administration; cited from earlier work
[7] = tested on: guinea pigs; details: i.v., reported; cited from earlier work
[8] = tested on: dogs; details: i.v., reported; cited from earlier work
[9] = NADPH-generating system, 37 °C, pH 7.4
Method: To characterize their phase I metabolism, the drugs were incubated with human or rat microsomes and their main metabolites were determined by HPLC-MS analysis and compared to data already reported (Table 3).
After centrifuging the reaction mixtures, the parent drug and its metabolites were characterized by LC-UV-MS [38].
HPLC analysis was performed using an Agilent 1100 LC/MSD VL system (G1946C) (Agilent Technologies, Palo Alto, CA) comprising a vacuum solvent degassing unit, a binary high-pressure gradient pump and a 1100 series UV detector; a 1100 MSD model VL benchtop mass spectrometer was used to perform the chromatographic analysis. Chromatographic separation was obtained using a Phenomenex Kinetex C18-100 Å column (100–4.6 mm, 5 μm particle size). […] The injection volume was 20 μL and the flow rate was 0.4 mL min^−1. The orthogonal spray API-ES was installed on the Agilent 1100 series mass spectra-detection single-quadrupole instrument (Agilent Technologies, Palo Alto, CA, USA). N2 was used as a nebulizing and drying gas. The vaporization temperature, capillary voltage, fragmentor voltage, drying gas flow and pressure were set at […], respectively. […] The LC-ESI-MS measurements were performed by operating in either the positive or negative ion mode. Spectra were acquired over the scan range m/z 100–1500 using a step size of 0.1 u. […]

[10] = set-up: method as in doi:10.1201/9780429460418; details: literature data; cited from earlier work
[11] = Preliminary in vivo PK in TMC (hemolymph analysis by HPLC); details: single dose equal to half the LD50 (62.5 or 150 mg/kg); hemolymph at 0, 1, 2, 4, 8, 24 hpt
[12] = cited from earlier work; for T ½ / Vd: PK literature data
[13] = set-up: method as in doi:10.1201/9780429460418; details: literature data; cited from earlier work; remark: listed apart in the source
[14] = in some people, depending on age and state of health

| Compound | LD50 at 7 days [3] [mg/kg] | LD50 Mice ip [4] [mg/kg] | LD50 Mice iv [4] [mg/kg] | LD50 Rats iv [2] [mg/kg] | LD50 Rats ip [2] [mg/kg] | further results |
| --- | --- | --- | --- | --- | --- | --- |
| CCO [EtOH] | – | – | – | – | – | Survival % ([1]; 1 µL injected per TMC): 100%; tolerability [1]: well tolerated; Survival % ([1]; 2 µL injected per TMC): 50%; LD50 ([2]; rats, route not given): 1400 mg/kg |
| COCCc1ccc(OCC(O)CNC(C)C)cc1 (stereo not shown) [Metoprolol] | 500 | >200 | 62 | 71.9 | – | – |
| CC(C)C(=O)OC[C@H]1O[C@@H](n2ccc(NO)nc2=O)[C@H](O)[C@@H]1O [Molnupiravir] | > 2000 | – | – | – | – | toxicity at the highest dose [5]: absence of toxicity; LD50 [6]: > 800 mg/kg |
| C[S+](C)[O-] [DMSO] | – | – | – | – | – | LD50 ([4]; i.v., mice, reported): 20600 mg/kg; LD50 [7]: 6500 mg/kg; LD50 [8]: 2500 mg/kg; Survival % ([1]; 1 µL injected per TMC): 100%; tolerability [1]: well tolerated; Survival % ([1]; 2 µL injected per TMC): 0%; lethality ([1]; 2 µL per TMC): 100%; LD50 ([2]; i.v., rats): 5400 mg/kg |
| Nc1nc2c(ncn2COCCO)c(=O)[nH]1 [Acyclovir] | > 2000 | 1000 | – | – | – | LD50 (dose reported by Tucker et al.) ([2]; rats): greater than 650 mg/kg |
| Cc1onc(-c2ccccc2Cl)c1C(=O)N[C@@H]1C(=O)N2[C@@H]1SC(C)(C)[C@@H]2C(=O)O [Cloxacillin] | 750 | – | – | 1660 | – | – |
| CC1(C)S[C@@H]2[C@H](NC(=O)[C@H](N)c3ccc(O)cc3)C(=O)N2[C@H]1C(=O)O [Amoxicillin] | 750 | – | – | – | 2870 | – |
| CC(=O)Nc1ccc(O)cc1 [Paracetamol] | 125 | 340 | – | – | – | – |
| Nc1ccc(S(=O)(=O)Nc2ncccn2)cc1 [Sulfadiazine] | 300 | 750 | 180 | 880 | 446 | – |
| COc1cc(Cc2cnc(N)nc2N)cc(OC)c1OC [Trimethoprim] | 300 | 400 | 132 | – | 500 | – |
| CN/C(=N/CCSCc1nc[nH]c1C)NC#N [Cimetidine] | 750 | 306 | 150 | 326 | 328 | – |
| O=C(N[C@H](CO)[C@H](O)c1ccc([N+](=O)[O-])cc1)C(Cl)Cl [Chloramphenicol] | 300 | – | 171 | – | – | – |
| Cc1cccc(C)c1NC(=O)C1CCCCN1C (stereo not shown) [Mepivacaine] | 125 | 135 | 35 | 30 | – | – |
| NC(=O)N1c2ccccc2C=Cc2ccccc21 [Carbamazepine] | 125 | 114 | – | – | 158 | Stability % Human Microsomes ([9]; human liver microsomes 0.2 mg/mL, 60 min): 77.54%; Protein Binding [10]: 70–80%; elimination / metabolism of parent drug in TMC hemolymph [11]: decreased after 4h; T ½ [12]: 5 h; Vd [12]: 0.8 to 1.9 L/kg |
| CN(C)CCCN1c2ccccc2Sc2ccc(Cl)cc21 [Chlorpromazine] | 300 | 14 | 106 | – | 137 | Stability % Rats Microsomes ([9]; rat liver microsomes 0.2 mg/mL, 30 min): 77.99%; LogS [13]: −5.01; Protein Binding [10]: 95–98%; elimination / metabolism of parent drug in TMC hemolymph [11]: extensively metabolized; T ½ [12]: 8 to 35 h; Vd [12]: 7 to 20 L/kg; t ½ (prolonged) [12, 14]: 60 h; t ½ (reduced) [12, 14]: 2 h |
| CC(C)=O [Acetone] | – | – | – | – | – | Survival % ([1]; 1 µL injected per TMC): 100%; tolerability [1]: well tolerated; Survival % ([1]; 2 µL injected per TMC): 16.6% |
| CC(C(=O)O)c1cccc(C(=O)c2ccccc2)c1 (stereo not shown) [Ketoprofen] | – | 300 | – | 350 | 80 | – |
| COc1ccc2c3c1O[C@H]1[C@@H](O)C=C[C@H]4[C@@H](C2)N(C)CC[C@@]341 [Codeine] | 50 | 60 | – | 75 | 100 | – |
| O=C(O)c1ccccc1O [Salicylic acid] | – | 300 | – | – | – | – |
